In data set [1] the test system is leukemic cells. Conditions: Japanese Patent Publication (unexamined) No. 141815/1976; cited from earlier work.
Data set [2] relates to lymphoid leukemia L-1210. The following applies: U.S. Pat. No. 4,086,415; cited from earlier work.
Data set [3] deals with Ehrlich ascites carcinoma. Put plainly: Preventive effect against the growth of Ehrlich ascites carcinoma (Method A). The class given is in vivo, ICR mice. The following applies: for Toxicity / the number of mice died / the number of mice used / minimal effective dose / Inhibition ratio: once a day for 5 days; for Therapeutic index: MTD / MED; for minimal effective dose: Mus musculus, Ehrlich, ip, 120 h, minimum dose showing 100% inhibition, i.p., read-out: MED (Minimum Effective Dose). How it is done:
(§1) (A) Preventive Effect Against the Growth of Ehrlich Ascites Tumor
(§2) 10^6 tumor cells of Ehrlich ascites carcinoma were inoculated intraperitoneally into a group of five femal mice (ICR mice, body weight: 19-23 g). A test compound was dissolved in a physiological saline solution (In the case where CCNU was employed as the test compound, said compound was suspended in a physiological saline solution containing 0.1% NIKKOL HCO-60 (trademark; a surface active agent manufactured by Nikko Chemicals Co. Ltd.)) and administered intraperitoneally to the mice. The administration of the test compound was begun 24 hours after the inoculation of the tumor cells and performed once a day for 5 days. The volume of ascites in the treated mice were measured after 7 days of the experiment.
(§3) ^(a) T = the average volume of ascites in the treated mice
(§4) C = the average volume of ascites in the untreated mice (control group of
(§5) 100% inhibition for the growth of Ehrlich ascites tumor in mice without
(§6) 100% inhibition for the growth of said ascites tumor)
(§7) ^(e) Therapeutic index = MTD / MED
(§8) *the number of mice died / the number of mice used

Assay in data set [4]: as above
The class given is in vivo, ICR mice. Conditions: mouse, in vivo, ip; maximum dose showing 100% inhibition without causing death; i.p., once a day for 5 days; read-out: MTD (Maximum Tolerated Dose). How it is done: as §1, §2, §3, §4, §5, §6, §7, §8

For data set [5], the system named is Leukemia L-1210. The experiment in a line: Effect on life span of mice implanted with Leukemia L-1210 (Method B). Type of data set: in vivo, BDF1 mice. The following applies: once a day for 5 days; for 60-day survivors: survived for 60 days / used. As to the method:
(B) Effect on the Life Span of Mice Implanted with Leukemic Cells of L-1210
10^5 leukemic cells of L-1210 were inoculated intraperitoneally into a group of four male mice (BDF1 mice, body weight: 19-23 g). A test compound was dissolved in a physiological saline solution and administered intraperitoneally to the mice. The administration of the test compound was begun 24 hours after the inoculation of the leukemic cells and performed once a day for 5 days. The survival days of the treated mice were observed.
^(a) T = the mean survival days of the treated mice
C = the mean survival days of the untreated mice (control group of mice)
^(c) 60day survivors = the number of mice survived for 60 days / the […]

Molecules are shown by their SMILES. A value given as a limit tells only on which side of the number the result lay.

As for `O=NN(CCCl)C(=O)N[C@@H]1O[C@H](CO)[C@@H](O[C@@H]2O[C@H](CO)[C@H](O)[C@H](O)[C@H]2O)[C@H](O)[C@H]1O` [1-(2-chloroethyl)-1-nitroso-3-β-(D-lactosyl)urea], the “anti-tumor activity against leukemic cells” value in data set [1] was “show anti-tumor activity against leukemic cells”.

`O=NN(CCCl)C(=O)N[C@@H]1O[C@H](CO)[C@@H](O[C@H]2O[C@H](CO)[C@@H](O)[C@H](O)[C@H]2O)[C@H](O)[C@H]1O` [1-(2-chloroethyl)-1-nitroso-3-β-(D-maltosyl)urea]: the “anti-tumor activity against leukemic cells” value in data set [1] is on record as “show anti-tumor activity against leukemic cells”.

For `O=NN(CCCl)C(=O)N[C@@H]1O[C@H](CO)[C@@H](O)[C@H](O)[C@@H]1O` [1-(2-chloroethyl)-1-nitroso-3-β-(D-mannopyranosyl)urea], the “life span of mice implanted with L-1210” value in data set [2] is reported as “increase the life span of mice”.

In the case of `O=NN(CCCl)C(=O)NC1CCCCC1` [CCNU, 1-(2-chloroethyl)-1-nitroso-3-cyclohexylurea, reference compound], in data set [3] (100 mg/kg/day i.p.), the “Toxicity” value is listed as “Toxic” and the “the number of mice died / the number of mice used” value is on record as 5/5. Further, in data set [3], the Therapeutic index is on record as 4 and the minimal effective dose is 12.5 mg/kg/day.

As for `CCCCN(C(=O)N(CCCl)N=O)[C@H]1[C@@H](OC)O[C@H](CO)[C@@H](O)[C@@H]1O` [Compound 1, 1-(2-chloroethyl)-1-nitroso-3-n-butyl-3-(methyl α-D-glucopyranosid-2-yl)urea], the MTD in data set [4] stood at 100 mg/kg/day. The Inhibition ratio in data set [3] (0.78 mg/kg/day i.p.) stood at 34.1%; in data set [3] (1.56 mg/kg/day i.p.), 100%; in data set [3] (6.25 mg/kg/day i.p.), 100%; in data set [3] (25 mg/kg/day i.p.), 100%; in data set [3] (100 mg/kg/day i.p.) it was 100%. Also, the “Toxicity” value in data set [3] (200 mg/kg/day i.p.) is listed as “Toxic”. In data set [3], this molecule registered a Therapeutic index of 64. Further, the minimal effective dose in data set [3] came to 1.56 mg/kg/day.

In the case of `CCCN(C(=O)N(CCCl)N=O)[C@H]1[C@@H](OC)O[C@H](CO)[C@@H](O)[C@@H]1O` [Compound 2, 1-(2-chloroethyl)-1-nitroso-3-n-propyl-3-(methyl α-D-glucopyranosid-2-yl)urea], in data set [4], the MTD was 50 mg/kg/day. Also, the Inhibition ratio in data set [3] (0.39 mg/kg/day i.p.) came out at 15.2%; in data set [3] (0.78 mg/kg/day i.p.) it was 100%; in data set [3] (3.12 mg/kg/day i.p.), 100%; in data set [3] (12.5 mg/kg/day i.p.), 100%; in data set [3] (50 mg/kg/day i.p.) it was 100%. Besides, the “Toxicity” value in data set [3] (100 mg/kg/day i.p.) is given as “Toxic”. Moreover, the “the number of mice died / the number of mice used” value in data set [3] (100 mg/kg/day i.p.) is recorded as 2/5. For the same molecule, the Therapeutic index in data set [3] was 64. Besides, in data set [3], the minimal effective dose was found to be 0.78 mg/kg/day. Besides, the increase in lifespan (ILS) in data set [5] (6.25 mg/kg/day i.p.) is 78.8%; in data set [5] (12.5 mg/kg/day i.p.), more than 366.3%; in data set [5] (25 mg/kg/day i.p.), more than 650.0%; in data set [5] (50 mg/kg/day i.p.) it was more than 650.0%. For the same molecule, the 60-day survivors was 0/4 in data set [5] (6.25 mg/kg/day i.p.), 2/4 in data set [5] (12.5 mg/kg/day i.p.), 4/4 in data set [5] (25 mg/kg/day i.p.) and 4/4 in data set [5] (50 mg/kg/day i.p.).

Consider `CO[C@H]1O[C@H](CO)[C@@H](O)[C@H](O)[C@H]1N(CC(C)C)C(=O)N(CCCl)N=O` [Compound 3, 1-(2-chloroethyl)-1-nitroso-3-isobutyl-3-(methyl α-D-glucopyranosid-2-yl)urea], for which the MTD in data set [4] came to 50 mg/kg/day. The Inhibition ratio is on record as 45.7% in data set [3] (0.39 mg/kg/day i.p.); 100% in data set [3] (0.78 mg/kg/day i.p.); 100% in data set [3] (3.12 mg/kg/day i.p.); 100% in data set [3] (12.5 mg/kg/day i.p.); 100% in data set [3] (50 mg/kg/day i.p.). For the same molecule, the “Toxicity” value in data set [3] (100 mg/kg/day i.p.) is recorded as “Toxic”. The “the number of mice died / the number of mice used” value in data set [3] (100 mg/kg/day i.p.) is 4/5. This molecule also gave a Therapeutic index in data set [3] of 64. The minimal effective dose in data set [3] came to 0.78 mg/kg/day. For the same molecule, the values for the ILS in data set [5] (12.5 mg/kg/day i.p.), in data set [5] (25 mg/kg/day i.p.) and in data set [5] (50 mg/kg/day i.p.) were 114.9%, more than 689.5% and more than 689.5%, respectively. The 60-day survivors in data set [5] (12.5 mg/kg/day i.p.) was 0/4; in data set [5] (25 mg/kg/day i.p.) it was 4/4; in data set [5] (50 mg/kg/day i.p.) it was 4/4.

For `COCCN(C(=O)N(CCCl)N=O)[C@H]1[C@@H](OC)O[C@H](CO)[C@@H](O)[C@@H]1O` [Compound 4, 1-(2-chloroethyl)-1-nitroso-3-(2-methoxyethyl)-3-(methyl α-D-glucopyranosid-2-yl)urea], in data set [4], the MTD amounted to 50 mg/kg/day. In addition, the Inhibition ratio in data set [3] (0.19 mg/kg/day i.p.) turned out to be 69.6%; in data set [3] (0.39 mg/kg/day i.p.), 100%; in data set [3] (0.78 mg/kg/day i.p.), 100%; in data set [3] (3.12 mg/kg/day i.p.), 100%; in data set [3] (12.5 mg/kg/day i.p.), 100%; in data set [3] (50 mg/kg/day i.p.), 100%. Moreover, the “Toxicity” value in data set [3] (100 mg/kg/day i.p.) was “Toxic”. In addition, the “the number of mice died / the number of mice used” value in data set [3] (100 mg/kg/day i.p.) is reported as 3/5. The molecule also showed a Therapeutic index in data set [3] of 128. In addition, the minimal effective dose in data set [3] turned out to be 0.39 mg/kg/day. In addition, the ILS in data set [5] (6.25 mg/kg/day i.p.) is 93.8%; in data set [5] (12.5 mg/kg/day i.p.), more than 243.8%; in data set [5] (25 mg/kg/day i.p.), more than 650.0%; in data set [5] (50 mg/kg/day i.p.), more than 650.0%. Besides, the 60-day survivors is 0/4 in data set [5] (6.25 mg/kg/day i.p.), 1/4 in data set [5] (12.5 mg/kg/day i.p.), 4/4 in data set [5] (25 mg/kg/day i.p.) and 4/4 in data set [5] (50 mg/kg/day i.p.).

As to `CO[C@H]1O[C@H](CO)[C@@H](O)[C@H](O)[C@H]1N(C)C(=O)N(CCCl)N=O` [Compound 5, 1-(2-chloroethyl)-1-nitroso-3-methyl-3-(methyl α-D-glucopyranosid-2-yl)urea], the MTD in data set [4] stood at 100 mg/kg/day. Besides, the Inhibition ratio in data set [3] (0.39 mg/kg/day i.p.) stood at 9.8%; in data set [3] (0.78 mg/kg/day i.p.), 100%; in data set [3] (1.56 mg/kg/day i.p.) it was 100%; in data set [3] (6.25 mg/kg/day i.p.), 100%; in data set [3] (25 mg/kg/day i.p.), 100%; in data set [3] (100 mg/kg/day i.p.), 100%. In addition, the “Toxicity” value in data set [3] (200 mg/kg/day i.p.) is reported as “Toxic”. Moreover, the “the number of mice died / the number of mice used” value in data set [3] (200 mg/kg/day i.p.) is 5/5. The same molecule had a Therapeutic index in data set [3] of 128. Also, in data set [3], the minimal effective dose is 0.78 mg/kg/day.

As to `O=NN(CCCl)C(=O)N[C@@H]1O[C@H](CO)[C@@H](O)[C@H](O)[C@H]1O` [GANU, 1-(2-chloroethyl)-1-nitroso-3-(β-D-glucopyranosyl)urea, reference compound], the MTD in data set [4] was found to be 12.5 mg/kg/day. Moreover, the Inhibition ratio in data set [3] (12.5 mg/kg/day i.p.) was 100%. In data set [3] (25 mg/kg/day i.p.), the “Toxicity” value was “Toxic” and the “the number of mice died / the number of mice used” value is on record as 5/5. Besides, in data set [3], the Therapeutic index amounted to 32 and the minimal effective dose was found to be 0.39 mg/kg/day. The “life span of mice implanted with L-1210” value in data set [2] is reported as “increase the life span of mice”.

(Values after US4472573A, “Nitrosourea derivative and process for preparing same” (Tanabe Seiyaku Co., Ltd., priority 1981, dated 1984).)
